From patent US10238641B2, “Materials and methods for diagnosis, prevention and/or treatment of stress disorders and conditions associated with A-beta peptide aggregation” (The United States of America as represented by the …, priority 2008, dated 2019) come the findings set out here.

The structures appear in SMILES notation.

The target in one assay is T1, Aβ1-42 peptide (Homo sapiens, UniProt P05067).
T1 construct: Aβ1-42 peptide was obtained from American Peptide; purchased American Peptide (Sunnyvale, Calif., USA)
The assay is described as follows: AFM analysis of Aβ1-42 fibrillation. The format is biochemical. Here is the method: Since the aggregation behavior of Aβ is dependent on the presence of small concentrations of aggregated forms of the peptide, that are present in many commercial samples, we prepared the Aβ solution by first dissolving the peptide in Hexafluoroisopropanol (HFIP), a protocol that produces a starting solution constituted only of Aβ monomers (Chromy et al. (2003)). Lyophillized Aβ1-42 (American peptide) (1 mg) was dissolved in HFIP, evaporated and re-dissolved in 22 μl of dimethyl sulfoxide (DMSO, St. Louis, Mo.). These peptide preparations were then diluted in PBS buffer pH 7.4 alone or PBS plus cotinine to obtain solutions containing 1 mM Aβ1-42 with and without 2 mM cotinine. Then the Aβ1-42 solutions were incubated for 10 days and the formation of oligomers and fibers was examined.
20 μl aliquots of Aβ solutions were deposited on freshly cleaned and dried silicon wafers (approximately 1 mm thick). After waiting for 10 min, non-adsorbed portions of the samples were washed with de-ionized water (2000 μl). The wet surface of the silicon wafer was then dried using gentle flow of air.
The AFM analysis was performed using an AFM apparatus (AFM, βA multimode SPM, Model no. 920-006-101, Vecco) that permits the acquisition of images using a tapping mode approach. This approach allows intermittent contact of the tip with the sample and minimizes the chances of deformation of the peptide samples. The cantilever and the tip were made up of silicon and the cantilever force constant was approximately 20-100 N/m with the resonance frequency between 200-400 khz. The scan rate was between 1.0 to 1.2 Hz. The analysis of fibrils and oligomers was performed using the software NanoScope Control, version 5.30.
To investigate whether cotinine in addition to Aβ oligomerization also affected fibril formation, we used Atomic force miscroscopy (AFM) to analyze Aβ aggregation. The solutions were prepared dissolving Aβ in HFIP and after evaporation, in PBS alone or containing cotinine and incubated at 37° C. for 3 and 10 days.

The test system of assay [1] is phospho-CREB (Serine 133). The assay is described as follows: BDNF-stimulated phosphorylation of CREB after Aβ exposure, Western blot. The class given is cell-based, rat. The conditions noted are these: 5 μM Aβ1-42 + 10 μM cotinine 5 h, then BDNF 1 h. Here is the method: Western blot analysis of the BDNF-stimulated phosphorylation of CREB in extracts of cortical cells. Cells were exposed to vehicle, 5 μM Aβ alone or 5 μM Aβ plus 10 μM cotinine for 5 hours, then to BDNF (50 ng/ml) for 1 hour and analyzed for CREB by western blot (FIG. 6B). The histogram (FIG. 6A) represents the levels of phospho-CREB (Ser133) normalized against β-Tubulin used as a control of protein loading. The values represent significant (*) difference with P<0.05.
Rat embryonic cortical cells were cultured in 24-well plates (0.3×10^6 cells/well) for 7 days, washed with PBS, collected and disrupted by sonication in ice-cold cell lysis buffer containing (20 mM Tris (pH 7.4), 150 mM NaCl, 1 mM ethylenediaminetetraacetic acid (EDTA), 1 mM egtazic acid (EGTA), 1% triton, 2.5 mM Na pyrophosphate, 1 mM β-glycerophosphate, 1 mM Na orthovanadate, 1 μg/ml leupeptin) (Cell Signaling Technology, Beverly, Mass., USA), 1 mM phenylmethylsulfonyl fluoride (PMSF) (Sigma) complete protease inhibitor cocktail (Roche Molecular Biochemicals, Indianapolis, Ind., USA). […] Protein concentration of supernatants was measured by Bio-Rad protein assay (Bio-Rad, Hercules, Calif., USA), and equal amounts of protein were separated by gradient (4-20%) SDS-PAGE and transferred to nitrocellulose membranes (BA83 0.2 μm; Bio-Rad). […]

Assay [2] deals with JNK1/2 phosphorylated (pJNK) at Thr183 and Thr185. As to the kind of experiment: BDNF-induced pJNK in primary cortical neurons, Western blot. The class given is cell-based. To be noted: BDNF 100 ng/ml plus cotinine 10 μM, 1 h. Here is the method: After 7 days in vitro, cortical neurons were treated with BDNF (100 ng/ml) alone or BDNF plus cotinine (10 μM) for 1 h. After treatments, cells were lysed and whole cell extracts were analyzed for the active forms of JNK and ERKs, pJNK and pERK1/2 by Western blot.

For another assay, the system named is anxiety in mice. The assay is described as follows: Elevated plus maze, basal anxiety. The format is in vivo. To be noted: cotinine 1 and 5 mg/kg. An excerpt:
Mice were placed in an EPM (Stoelting, Wood Dale, Ill., USA) made of grey plexiglas, consisting of two opposite-facing open arms, two opposite-facing closed arms, and a central area. Mice were placed at the end of one of the open arms facing toward the central area before a 5-minute test session was begun. We recorded the number of entries into the open and closed arms and assessed the exploratory behavior of the mice. We utilized a video tracking software that measures movement in each section of the maze in order to determine the time the mice were mobile exploring the different arms. Statistical significance was evaluated using One-way ANOVA with Tukey posttest. ns, not significant.
The elevated plus maze (EPM) is considered the first choice test for screening anxiolytic effects of drugs. This test is based on the fact that higher anxiety levels will decrease the drive to explore a new environment as a way to avoid a potentially dangerous areas (open arms), and will, therefore, cause the mice to stay immobile in the closed arms for a longer period of time.

The subject of another assay is DARPP-32. The assay is described as follows: DARPP-32 activity in neurons. The format is cell-based. To be noted: neurons from rat brain cells.
Another assay deals with Aβ (Homo sapiens, UniProt P05067). As to the kind of experiment: Binding of cotinine to Aβ in vitro.
Chain of Aβ (P05067 672-713 limits assumed): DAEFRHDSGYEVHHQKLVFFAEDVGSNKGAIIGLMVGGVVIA

T1 sequence (P05067 672-713 limits assumed): as above

In the case of `CN1C(=O)CC[C@H]1c1cccnc1` [cotinine], at Aβ1-42 peptide (1 mM Aβ1-42 + 2 mM cotinine, 10 days 37° C.), the “effect on Aβ aggregation and fibril length (AFM)” value was “reduced Aβ aggregation and the length of Aβ fibrils”. For the same compound, on Aβ1-42 peptide (1 mM Aβ1-42 + 2 mM cotinine, 10 days 37° C., n=23, without cotinine 345±42), the “average length of Aβ fibrils” value is 223±36. Further, the “average diameter of the fibers” value on Aβ1-42 peptide (unchanged by presence of cotinine) is reported as 22-24 nm. Further, in assay [1], the “increase of phosphoCREB versus cells treated with BDNF plus Aβ1-42” value was 34% and the “phosphoCREB level relative to control cells” value is on record as “indistinguishable from the control cell values”. Also, the “levels of active JNK1/2 (pJNK) induced by BDNF” value in assay [2] is “decreased the levels of the active forms of JNK1/2”. In addition, the “time spent on open arms (EPM, resting conditions)” value with anxiety in mice (p=0.4471) is reported as “did not change”. Besides, the “time spent on closed arms (EPM, resting conditions)” value with anxiety in mice (p=0.6186) is listed as “did not change”. Moreover, the “time spent exploring the maze (EPM, resting conditions)” value with anxiety in mice (p=0.8831) was “did not change”. Moreover, the “activity of DARPP-32” value in the assay on DARPP-32 is “increases the activity of DARPP-32”. Further, the “binding to Aβ” value on Aβ is “high affinity”.
